Results reported in the supplement of paper PMC10307832.

Tests used:
Assay in all cases: relative viability (nuclei count vs DMSO), 5 days (fraction); higher = more cells survive
AZD8055 + Dasatinib = compound: COc1ccc(-c2ccc3c(N4CCOC[C@@H]4C)nc(N4CCOC[C@@H]4C)nc3n2)cc1CO [AZD8055] + Cc1nc(Nc2ncc(C(=O)Nc3c(C)cccc3Cl)s2)cc(N2CCN(CCO)CC2)n1 [Dasatinib] (partner 0.075 µM)
Procedure, shortened: (§1)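 Lung cancer cell lines were seeded in 1536-well plates and dosed by pin tool the next day, with either a single drug or a fixed anchor-drug dose combined with five library-drug doses (not always all listed) spaced in √10 steps. Five days later, one step fixed the cells and stained their nuclei (final 0.05% Triton X-100, 1% formaldehyde, 1 ug/ml Hoechst), and nuclei were counted on 4× images. Relative viability is the nuclei count in treated wells divided by the count in vehicle wells, and each value is the median of duplicate plates.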

AZD8055 + Vorinostat = compound: COc1ccc(-c2ccc3c(N4CCOC[C@@H]4C)nc(N4CCOC[C@@H]4C)nc3n2)cc1CO [AZD8055] + O=C(CCCCCCC(=O)Nc1ccccc1)NO [Vorinostat] (partner 1 µM)
Procedure, shortened: as §1

AZD8055 + Crizotinib = compound: COc1ccc(-c2ccc3c(N4CCOC[C@@H]4C)nc(N4CCOC[C@@H]4C)nc3n2)cc1CO [AZD8055] + C[C@@H](Oc1cc(-c2cnn(C3CCNCC3)c2)cnc1N)c1c(Cl)ccc(F)c1Cl [Crizotinib] (partner 1 µM)
Procedure, shortened: as §1

AZD8055 + Pictilisib = compound: COc1ccc(-c2ccc3c(N4CCOC[C@@H]4C)nc(N4CCOC[C@@H]4C)nc3n2)cc1CO [AZD8055] + CS(=O)(=O)N1CCN(Cc2cc3nc(-c4cccc5[nH]ncc45)nc(N4CCOCC4)c3s2)CC1 [Pictilisib] (partner 1 µM)
Procedure, shortened: as §1

| Cell Line | relative viability (AZD8055 + Dasatinib; first compound 0.01 µM) | relative viability (AZD8055 + Dasatinib; first compound 0.03162 µM) | relative viability (AZD8055 + Dasatinib; first compound 0.1 µM) | relative viability (AZD8055 + Dasatinib; first compound 0.3162 µM) | relative viability (AZD8055 + Dasatinib; first compound 1 µM) | relative viability (AZD8055 + Vorinostat; first compound 0.01 µM) | relative viability (AZD8055 + Vorinostat; first compound 0.03162 µM) | relative viability (AZD8055 + Vorinostat; first compound 0.1 µM) | relative viability (AZD8055 + Vorinostat; first compound 0.3162 µM) | relative viability (AZD8055 + Vorinostat; first compound 1 µM) | relative viability (AZD8055 + Crizotinib; first compound 0.01 µM) | relative viability (AZD8055 + Crizotinib; first compound 0.03162 µM) | relative viability (AZD8055 + Crizotinib; first compound 0.1 µM) | relative viability (AZD8055 + Crizotinib; first compound 0.3162 µM) | relative viability (AZD8055 + Crizotinib; first compound 1 µM) | relative viability (AZD8055 + Pictilisib; first compound 0.01 µM) | relative viability (AZD8055 + Pictilisib; first compound 0.03162 µM) | relative viability (AZD8055 + Pictilisib; first compound 0.1 µM) | relative viability (AZD8055 + Pictilisib; first compound 0.3162 µM) | relative viability (AZD8055 + Pictilisib; first compound 1 µM) |
| --- | --- | --- | --- | --- | --- | --- | --- | --- | --- | --- | --- | --- | --- | --- | --- | --- | --- | --- | --- | --- |
| NCI-H2405 | 0.225 | 0.204 | 0.215 | 0.188 | 0.183 | 1.19 | 0.918 | 0.796 | 0.36 | 0.373 | 0.804 | 0.815 | 0.681 | 0.516 | 0.311 | 0.503 | 0.398 | 0.316 | 0.182 | 0.223 |
| NCI-H3122 | 0.653 | 0.684 | 0.783 | 0.223 | 0.292 | 0.809 | 0.999 | 0.877 | 0.442 | 0.338 | 0.248 | 0.238 | 0.183 | 0.174 | 0.171 | 0.549 | 0.47 | 0.337 | 0.272 | 0.29 |
| PC-3 [JPC-3] | 1.01 | 0.937 | 0.946 | 0.641 | 0.444 | 0.849 | 0.902 | 0.631 | 0.534 | 0.495 | 1.06 | 1.05 | 1.01 | 0.712 | 0.53 | 0.616 | 0.81 | 0.645 | 0.633 | 0.381 |
| PC-14 | 0.319 | 0.309 | 0.199 | 0.0815 | 0.0639 | 0.78 | 0.606 | 0.586 | 0.201 | 0.125 | 1.06 | 1.02 | 0.771 | 0.448 | 0.21 | 0.587 | 0.452 | 0.294 | 0.184 | 0.113 |
| RERF-LC-KJ | 0.946 | 0.753 | 0.607 | 0.284 | 0.343 | 0.819 | 0.665 | 0.575 | 0.446 | 0.384 | 0.863 | 0.974 | 0.756 | 0.578 | 0.452 | 0.566 | 0.452 | 0.426 | 0.309 | 0.289 |
| SK-LU-1 | 0.163 | 0.161 | 0.136 | 0.113 | 0.121 | 0.745 | 0.701 | 0.605 | 0.393 | 0.292 | 0.743 | 0.767 | 0.335 | 0.475 | 0.376 | 0.525 | 0.395 | 0.327 | 0.28 | 0.298 |
| SK-MES-1 | 0.404 | 0.337 | 0.256 | 0.213 | 0.179 | 1.06 | 0.958 | 0.962 | 0.427 | 0.314 | 0.94 | 0.944 | 0.781 | 0.494 | 0.318 | 0.311 | 0.355 | 0.299 | 0.181 | 0.236 |
| SW 1573 | 0.583 | 0.534 | 0.262 | 0.114 | 0.103 | 0.791 | 0.452 | 0.773 | 0.21 | 0.199 | 0.777 | 0.812 | 0.449 | 0.317 | 0.21 | 0.504 | 0.438 | 0.38 | 0.205 | 0.181 |
| UMC-11 | 0.521 | 0.381 | 0.302 | 0.252 | 0.224 | 0.453 | 0.282 | 0.258 | 0.233 | 0.21 | 0.543 | 0.535 | 0.321 | 0.29 | 0.189 | 0.905 | 0.604 | 0.503 | 0.272 | 0.254 |
